Measured values as given in patent US8324172B2, “G protein coupled receptor agonists and antagonists and methods of activating and inhibiting G protein coupled receptors using the same” (Tufts Medical Center, Inc., priority 2000, dated 2012).
Where a chain is given by its changes, count along the chain named. Values joined by “and” are separate entries in the source; they are usually repeats but may differ in a detail not shown here. Equal values may be shown once. Blank lines part the entries; values can stand above or below the molecule they belong to. Where a SMILES comes first, the peptide text is derived from it. The star is where a group is joined. Palmitoyl = CCCCCCCCCCCCCCCC(=O)*

Key:
[1] = target: T1, PAR1 (Homo sapiens, UniProt P25116); assay: Inhibition of SFLLRN-induced human platelet aggregation; assay type: cell-based; details: 3 μM pepducin, 1 min preincubation
T1 construct: expressed in transfected cells
T1 sequence (P25116 22-425): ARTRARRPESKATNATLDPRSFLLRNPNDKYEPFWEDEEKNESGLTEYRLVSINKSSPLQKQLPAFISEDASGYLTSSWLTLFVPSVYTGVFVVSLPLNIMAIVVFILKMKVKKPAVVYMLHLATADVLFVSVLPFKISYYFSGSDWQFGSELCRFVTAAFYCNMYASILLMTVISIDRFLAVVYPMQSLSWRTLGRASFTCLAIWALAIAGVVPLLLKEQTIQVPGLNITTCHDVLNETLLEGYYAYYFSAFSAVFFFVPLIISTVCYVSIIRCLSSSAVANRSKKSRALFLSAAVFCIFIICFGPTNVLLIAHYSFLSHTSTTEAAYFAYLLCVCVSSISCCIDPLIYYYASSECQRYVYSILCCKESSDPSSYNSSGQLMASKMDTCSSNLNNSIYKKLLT

[2] = tested on: TXA2, ADP, collagen, or GPIb/IX/V receptors; assay: Inhibition of human platelet aggregation induced by U46619, ADP, collagen or ristocetin; assay type: cell-based; details: 5 μM pepducin, ristocetin
From the text: 84, 1440 (1989)) and von Willebrand factor (GPIb/IX/V) (Savage et al., Cell 94, 657 (1998)) using platelets as the biologically-relevant system.

[3] = target: T2, PAR4 (Homo sapiens, UniProt Q96RI0); assay: Inhibition of PAR4-dependent platelet Ca2+ signal (AYPGKF); assay type: cell-based; details: 3 micromolar pepducin; 200 Micromolar AYPGKF
T2 sequence (Q96RI0 18-385): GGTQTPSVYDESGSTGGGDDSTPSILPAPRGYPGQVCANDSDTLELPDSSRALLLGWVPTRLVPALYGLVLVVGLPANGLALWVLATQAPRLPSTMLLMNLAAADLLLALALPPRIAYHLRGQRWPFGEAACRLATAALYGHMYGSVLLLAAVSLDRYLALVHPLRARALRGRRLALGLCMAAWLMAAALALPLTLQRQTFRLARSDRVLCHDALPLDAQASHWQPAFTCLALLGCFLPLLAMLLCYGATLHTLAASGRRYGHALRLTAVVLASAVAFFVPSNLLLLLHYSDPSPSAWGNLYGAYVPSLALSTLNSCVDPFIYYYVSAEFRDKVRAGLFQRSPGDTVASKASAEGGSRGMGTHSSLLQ
Protocol: (§1) Platelet Ca2+ measurements were performed as in Example 1.
(§2) The integrated Ca^2+ response for the individual treatments are relative to the full Ca^2+ responses for each agonist (100%) recorded in the absence of P4pal-10 (top trace).

[4] = Tail bleeding time and rebleeding in mice; details: 3 μmoles/L i.v.
[5] = tested on: human platelets
[6] = target: T2, PAR4; assay: Inhibition of AYPGKF-induced human platelet aggregation; assay type: cell-based; details: AYPGKF
[7] = tested on: thrombin receptors on human platelets; assay: Inhibition of thrombin-induced human platelet aggregation; details: 3 μM pepducin
[8] = target: T1, PAR1; assay: Inhibition of PAR1-dependent platelet Ca2+ signal; assay type: cell-based; details: SFLLRN (or thrombin) after peptide pre-treatment
Protocol: as §1, §2

[9] = tested on: MDA-MB-231 breast cancer cells; assay: Chemoinvasion of MDA-MB-231 breast cancer cells (Transwell); assay type: cell-based, human; details: NIH3T3 conditioned medium
Protocol: Experiments were performed in order to determine if application of pepducins based on the i3 loops of PAR1, PAR2, or PAR4 would inhibit migration and invasion of breast cancer cells. It was determined that the highly invasive MDA-MB-231 breast cancer cell line expressed very high levels of functional PAR1, PAR2 and PAR4. […] Pepducins were added with NIH3T3 Conditioned medium (CM) to the bottom well of a Transwell apparatus.

[10] = target: T1, PAR1; assay: InsP formation in COS7 cells transiently transfected with wild-type PAR1; assay type: cell-based
[11] = target: T2, PAR4; assay: InsP formation in COS7 cells expressing PAR4; assay type: cell-based; parameters: expressed in transfected cells; host or cells: COS7, transient
[12] = target: T1, PAR1; assay: InsP formation (PLC-β) in Rat1 fibroblasts expressing human PAR1; assay type: cell-based; details: 0.1 nM thrombin
[13] = tested on: murine platelets (PAR4); assay: Aggregation of washed murine platelets; details: read-out: EC50 of aggregation of murine platelets
[14] = tested on: delta377 PAR1; assay: InsP formation in COS7 cells expressing delta377 (C-tail deleted) PAR1 mutant; assay type: cell-based, human; details: relative to wild type PAR1
[15] = target: T3, S309P PAR1 (Homo sapiens, UniProt P25116, S309P); assay: InsP formation in COS7 cells expressing S309P PAR1 mutant; assay type: cell-based; details: relative to wild type PAR1
T3 construct: expressed in transfected cells; host or cells: COS7, transient
T3 sequence (P25116 22-425 S309P): T1 sequence (P25116 22-425) with S288P

Molecule: CCCCCCCCCCCCCCCC(=O)N[C@@H](CCCNC(=N)N)C(=O)N[C@@H](CS)C(=O)N[C@@H](CC(C)C)C(=O)N[C@@H](CO)C(=O)N[C@@H](CO)C(=O)N[C@@H](CO)C(=O)N[C@@H](C)C(=O)N[C@H](C(=O)N[C@@H](C)C(=O)N[C@@H](CC(N)=O)C(=O)N[C@@H](CCCNC(=N)N)C(=O)N[C@@H](CO)C(N)=O)C(C)C [Pepducin P1pal-12] (Palmitoyl-RCLSSSAVANRS-NH2)
- aggregation blocked [1]: 75-95%
- block of aggregation by ligands of other platelet receptors [2]: did not block aggregation
- inhibition of PAR4-dependent Ca2+ response [3]: does not block PAR4 activation
- effect on tail-bleeding time [4]: did not prolong tail-bleeding time
- mean total bleeding time [4]: 95 s
- re-bleeding / unstable haemostasis [4]: did not prolong tail-bleeding time or result in unstable haemostasis
- re-bleeding / unstable haemostasis ([4]; listed as P1pal12): not observed
- agonist activity in platelet aggregation [5]: loss of stimulatory activity
- inhibition of PAR4-dependent platelet aggregation [6]: does not inhibit PAR4-dependent platelet aggregation
- inhibition of aggregation ([7]; 3 nM thrombin, 1 min): completely blocked aggregation
- inhibition of aggregation ([7]; 20 nM thrombin): not appreciably blocked
- inhibition of PAR1-dependent Ca2+ response [8]: effectively inhibits PAR1 activation
- inhibition of PAR1-dependent Ca2+ response ([8]; listed as P1pal12): completely block PAR1 signaling

Molecule: CCCCCCCCCCCCCCCC(=O)N[C@@H](CCCNC(=N)N)C(=O)N[C@@H](CCSC)C(=O)N[C@@H](CC(C)C)C(=O)N[C@@H](CCCNC(=N)N)C(=O)N[C@@H](CO)C(=O)N[C@@H](CO)C(=O)N[C@@H](C)C(=O)N[C@@H](CCSC)C(=O)N[C@@H](CC(=O)O)C(=O)N[C@@H](CCC(=O)O)C(=O)N[C@@H](CC(N)=O)C(=O)N[C@@H](CO)C(=O)N[C@@H](CCC(=O)O)C(=O)N[C@@H](CCCCN)C(=O)N[C@@H](CCCCN)C(=O)N[C@@H](CCCNC(=N)N)C(=O)N[C@@H](CCCCN)C(=O)N[C@@H](CCCNC(=N)N)C(=O)N[C@@H](C)C(=O)N[C@H](C(=O)N[C@@H](Cc1ccccc1)C(N)=O)[C@@H](C)CC [Pepducin P2pal-21F]
- inhibition of chemoinvasion [9]: 90%
- activation of PAR1 (InsP) ([10]; COS7 cells, FIG. 2G): activated PAR1
- activation of PAR4 (InsP) ([11]; COS7 cells): not PAR4

- InsP stimulation of WT PAR1 (100%) ([10]; 0.1 nM thrombin): 9.6 fold
- full extracellular agonist-stimulated InsP response ([11]; 10 nM thrombin): 3.1 fold
- EC50 [13]: 0.6 nM
- loss of efficacy on S309P mutant [15]: 1.6 fold
- loss of potency on S309P mutant [15]: 17 fold
Molecule: thrombin [reference compound]
- full PAR1 thrombin response (InsP stimulation) of individual experiments [12]: 7.6 fold and 9.4 fold and 12.4 fold and 18 fold and 9.5 fold and 5.2 fold
- shift of potency on delta377 mutant [14]: 22 fold

Molecule: CCCCCCCCCCCCCCCC(=O)N[C@@H](CCCCN)C(=O)N[C@@H](CCCCN)C(=O)N[C@@H](CO)C(=O)N[C@@H](CCCNC(=N)N)C(=O)N[C@@H](C)C(=O)N[C@@H](CC(C)C)C(=O)N[C@@H](Cc1ccccc1)C(N)=O [Pepducin P1pal-7, Pal-KKSRALF] (Palmitoyl-KKSRALF-NH2)
- inhibition of chemoinvasion [9]: 30%
- agonist activity in platelet aggregation [5]: loss of stimulatory activity
